One assay deals with T1, p38 MAP Kinase α (Homo sapiens, UniProt Q16539).
T1 construct: purchased Upstate (Dundee UK)
Description: p38 MAP Kinase enzyme assay. The assay is classed as biochemical. Particulars: Table 1 (biology); compound as such, Ester for Example 1; read-out: Inhibition of P38 (IC50 nM). On the procedure: p38 MAP Kinase Enzyme Assay
The ability of compounds to inhibit p38 MAPα Kinase activity was measured in an assay performed by Upstate (Dundee UK). In a final reaction volume of 25 μL, p38 MAP Kinase α (5-10 mU) is incubated with 25 mM Tris pH 7.5, 0.02 mM EGTA, 0.33 mg/mL myelin basic protein, 10 mM MgAcetate and [γ-^33P-ATP](specific activity approx. 500 cpm/pmol, concentration as required). The reaction is initiated by the addition of the MgATP mix. After incubation for 40 minutes at room temperature, the reaction is stopped by the addition of 5 μL of a 3% phosphoric acid solution. 10 μL of the reaction is then spotted onto a P30 filtermat and washed three times for 5 minutes in 75 mM phosphoric acid and once in methanol prior to drying and scintillation counting.
Duplicate data points are generated from a 1/3 log dilution series of a stock solution in DMSO. Nine dilutions steps are made from a top concentration of […], and a ‘no compound’ blank is included. The standard radiometric filter-binding assay is performed at an ATP concentration at, or close to, the Km. Data from scintillation counts are collected and subjected to free-fit analysis by Prism software. From the curve generated, the concentration giving 50% inhibition is determined and reported.

For assay [1], the system named is phosphorylation of MAPKAP-2 in U937 cells. The assay is described as follows: p38 MAP Kinase cellular assay: inhibition of phosphorylation of MAPKAP2 in U937 cells. The assay is classed as cell-based. Particulars: for IC50: Homo sapiens, U-937. Here is the method: (§1) p38 MAP Kinase Cellular Assay: Inhibition of Phosphorylation of MAPKAP2
(§2) U937 or HUT78 cells were plated in RPMI 1640, and were incubated at 37° C., 5% CO2 for 18 hours. 10 mM stocks of compounds were diluted media/0.1% DMSO to give a log or semi-log dilution series. The wells for ‘no treatment’ and ‘anisomycin’ were treated with 0.1% DMSO only. The cells were incubated at 37° C., 5% CO2 for a further 4 hours. Anisomycin was added to all wells except ‘no treatment’ at a final concentration of 10 μM. The cells were incubated at 37° C., 5% CO2 for 30 minutes before harvest. Plates were stood on ice whilst harvesting, and all following steps were carried out at 4° C. The cells were pelleted at 1000 rpm for 10 minutes at 4° C., the media aspirated, and the pellet washed with cold PBS. The pellets were lysed in 120 μl of SDS lysis buffer (62.5 mM Tris, pH 6.8, 2% SDS, 10% glycerol, 50 mM DTT, with protease inhibitors and phosphatase inhibitors added according to the manufacturers' recommendations). After 30 minutes on ice, the samples were sonicated for 5 seconds before centrifugation at 13,000 rpm 4° C. for 10 minutes to remove cell debris. 10 μl of the resulting gel samples were loaded per lane on NOVEX 4-12% Bis-Tris MOPS gels. Membranes from western transfer of gels were blotted with anti-phospho MAPKAP2, anti-phospho HSP27 and anti GAPDH according to the manufacturers' Instructions. Signal was visualised using HRP-Hnked anti-rabbit or anti-mouse antibodies, ECL reagent and ECL film. IC50 values for the various compounds were visualised from the resulting photographic images, using both band-shift and signal intensity.

Assay [2] concerns phosphorylation of MAPKAP-2 in HUT 78 cells. The assay is described as follows: p38 MAP Kinase cellular assay: inhibition of phosphorylation of MAPKAP2 in HUT 78 cells. It is filed as cell-based. Particulars: Table 2. On the procedure: as §1, §2

SMILES strings stand for the structures. Read-outs that look alike come from different tables or passages of the source.

T1 sequence (Q16539 whole entry): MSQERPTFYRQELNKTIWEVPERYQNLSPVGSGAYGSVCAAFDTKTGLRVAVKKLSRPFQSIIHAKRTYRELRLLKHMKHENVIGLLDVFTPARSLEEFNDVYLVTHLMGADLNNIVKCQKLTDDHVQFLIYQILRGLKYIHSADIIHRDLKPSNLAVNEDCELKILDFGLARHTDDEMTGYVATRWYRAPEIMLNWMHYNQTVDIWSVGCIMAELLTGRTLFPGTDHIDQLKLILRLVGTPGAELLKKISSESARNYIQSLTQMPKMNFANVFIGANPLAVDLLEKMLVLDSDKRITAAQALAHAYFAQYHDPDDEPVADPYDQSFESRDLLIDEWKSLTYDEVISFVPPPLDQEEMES

For `Nc1c(C(=O)c2ccc(F)cc2F)ccc(=O)n1-c1ccccc1` [Compound I, reference compound], the IC50 at p38 MAP Kinase α amounted to 50 nM; in assay [1] (Table 1 (biology), U937 cells, read-out: Inhibition of phosphorylation of MAPKAP-2 in U937 cells (IC50)), 300 nM; in assay [1] (Table 2, U937 monocyte cell line, read-out: Inhibition of phosphorylation of MAPKAP-2 in U937 cells (IC50, nM) (monocyte cell line)), 300 nM; in assay [2] (Homo sapiens, HuT78, HUT 78 non-monocyte cell line), 450 nM. Further, the “Ratio cell IC50s to enzyme IC50” value in assay [1] (U937 MAPKAP-2 IC50 to P38 enzyme IC50) is 6. In addition, the “potency in monocytic versus non monocytic cell lines (MAPKAP-2 phosphorylation)” value in assay [1] (U937 versus HUT 78) is “equipotent”. Also, in assay [2] (MAPKAP-2 phosphorylation IC50s), the “Ratio IC50s in HUT 78 to U937 cells” value is reported as 1.5.

Broadly, the IC50 is the concentration that gives 50% inhibition.

Source of the values: US9636409B2, “Enzyme and receptor modulation using covalent conjugates of alpha,alpha-disubstituted glycine esters” (GlaxoSmithKline Intellectual Property Development Limited, priority 2008, dated 2017).
